Measurements published in ChEMBL document CHEMBL1201862, “PubChem BioAssay data set” (2004).
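96-well plates; 48 h exposure; 5 concentrations. Endpoints by linear interpolation between flanking doses. Not reached: highest tested concentration assigned. GI50: concentration for 50% inhibition of growth.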 The source made the active and inactive calls. No stated cut-off is given here; in the data, active = GI50 up to about 1.1 µM and inactive = higher.

Assays:
Experiment in all cases: growth of human tumour cells (NCI), 48 h
OVCAR-3 = tested on: OVCAR-3
Hs-578T = tested on: Hs-578T
SNB-19 = tested on: SNB-19
HCT-116 = tested on: HCT-116
SNB-75 = tested on: SNB-75
HOP-92 = tested on: HOP-92
NCI-H522 = tested on: NCI-H522
OVCAR-8 = tested on: OVCAR-8
DU-145 = tested on: DU-145
T47D = tested on: T47D
NCI-H226 = tested on: NCI-H226
CAKI-1 = tested on: CAKI-1
K562 = tested on: K562
SN12C = tested on: SN12C
EKVX = tested on: EKVX
PC-3 = tested on: PC-3
A549 = tested on: A549
RPMI-8226 = tested on: RPMI-8226
A498 = tested on: A498

Measured: GI50

Cc1ccc2c(c1)C(O)(c1ccccc1)CCS2 (stereo not given)
inactive: OVCAR-3 21.3 µM | Hs-578T 34.1 µM | SNB-19 59.6 µM | HCT-116 20.8 µM | SNB-75 48.2 µM | HOP-92 17.7 µM | NCI-H522 19.7 µM | OVCAR-8 36.7 µM | DU-145 46.3 µM | T47D 28.2 µM | NCI-H226 27.5 µM | CAKI-1 22 µM | K562 20.2 µM | SN12C 32.6 µM | EKVX 51.4 µM | PC-3 25.8 µM | A549 32.8 µM

CC1(C)O[C@@H](CP(c2cccc3ccccc23)c2cccc3ccccc23)[C@H](CP(c2cccc3ccccc23)c2cccc3ccccc23)O1
inactive: OVCAR-3 > 100 µM | SNB-19 > 100 µM | HCT-116 > 100 µM | SNB-75 > 100 µM | NCI-H522 > 100 µM | OVCAR-8 > 100 µM | DU-145 > 100 µM | T47D > 100 µM | NCI-H226 > 100 µM | CAKI-1 > 100 µM | K562 > 100 µM | SN12C > 100 µM | EKVX > 100 µM | PC-3 > 100 µM | A549 > 100 µM

O=C(NNc1cn[nH]c(=O)c1Cl)/C(=C/c1ccc2c(c1)OCO2)NC(=O)c1ccccc1
inactive: OVCAR-3 71.3 µM | SNB-19 76.2 µM | HCT-116 34.8 µM | SNB-75 24.9 µM | HOP-92 > 100 µM | OVCAR-8 36.7 µM | DU-145 92 µM | T47D 73.5 µM | NCI-H226 21.9 µM | CAKI-1 22.9 µM | SN12C 50 µM | EKVX 19.1 µM | PC-3 61.2 µM | A549 > 100 µM

C=C1C(=O)O[C@@H]2[C@H]1CC[C@H](C)[C@]1(O)CCC(=O)[C@@]21C [CORONOPILIN]
inactive: OVCAR-3 > 10 µM | Hs-578T > 10 µM | SNB-19 > 10 µM | HCT-116 > 10 µM | RPMI-8226 > 10 µM | SNB-75 > 10 µM | HOP-92 > 10 µM | OVCAR-8 > 10 µM | T47D > 10 µM | NCI-H226 > 10 µM | K562 > 10 µM | SN12C > 10 µM | EKVX > 10 µM | PC-3 > 10 µM | A549 > 10 µM

O=CCC1CCCCC1
inactive: OVCAR-3 > 100 µM | SNB-19 > 100 µM | HCT-116 > 100 µM | A498 > 100 µM | RPMI-8226 > 100 µM | SNB-75 > 100 µM | HOP-92 > 100 µM | NCI-H522 > 100 µM | T47D > 100 µM | NCI-H226 > 100 µM | CAKI-1 > 100 µM | K562 > 100 µM | SN12C > 100 µM | EKVX > 100 µM | PC-3 > 100 µM | A549 > 100 µM

Cc1ccc(/C=C/C(=N/NC(=O)N/N=C(/C=C/c2ccc(C)cc2)C(C)C)C(C)C)cc1
inactive: OVCAR-3 3.93 µM | SNB-19 > 10 µM | HCT-116 5.24 µM | RPMI-8226 3.11 µM | HOP-92 > 10 µM | NCI-H522 9.12 µM | OVCAR-8 > 10 µM | DU-145 > 10 µM | NCI-H226 > 10 µM | CAKI-1 > 10 µM | K562 > 10 µM | SN12C 9.77 µM | EKVX > 10 µM | PC-3 > 10 µM | A549 > 10 µM

CC1(C)OC1CC/C(=C/CBr)CBr (stereo not given)
inactive: OVCAR-3 18.7 µM | Hs-578T 17.5 µM | SNB-19 15.2 µM | HCT-116 18.1 µM | A498 21.4 µM | RPMI-8226 12.9 µM | SNB-75 6.82 µM | HOP-92 15.4 µM | NCI-H522 10.3 µM | DU-145 20.9 µM | NCI-H226 21.7 µM | CAKI-1 17.9 µM | K562 15.8 µM | SN12C 15.6 µM | EKVX 18.1 µM | PC-3 15.6 µM | A549 21.3 µM

O=C(/C=C(\C(=O)c1cccs1)c1cccs1)c1ccc(C(=O)/C=C(\C(=O)c2cccs2)c2cccs2)cc1
inactive: Hs-578T > 100 µM | SNB-19 > 100 µM | HCT-116 > 100 µM | RPMI-8226 > 100 µM | SNB-75 > 100 µM | OVCAR-8 > 100 µM | DU-145 > 100 µM | T47D > 100 µM | NCI-H226 > 100 µM | CAKI-1 > 100 µM | K562 > 100 µM | SN12C > 100 µM | EKVX > 100 µM | PC-3 > 100 µM | A549 > 100 µM

Clc1ccc(Nc2nnc(CNc3ccc(-c4nnc(Nc5ccc(Cl)cc5)s4)cc3)s2)cc1
inactive: SNB-19 30.1 µM | HCT-116 12.5 µM | A498 28.9 µM | RPMI-8226 18.4 µM | SNB-75 > 100 µM | HOP-92 74.6 µM | NCI-H522 12.8 µM | DU-145 22.5 µM | NCI-H226 34.9 µM | CAKI-1 42.6 µM | K562 7.71 µM | SN12C 47.8 µM | EKVX 49.1 µM | PC-3 15 µM | A549 16.1 µM

Cc1ccc(S(=O)(=O)Nn2c(S)c(C#N)c(-c3ccc(N(C)C)cc3)c(C#N)c2=O)cc1
inactive: SNB-19 43 µM | HCT-116 28.2 µM | A498 17.3 µM | RPMI-8226 15.6 µM | SNB-75 35.2 µM | HOP-92 29.6 µM | NCI-H522 14.5 µM | OVCAR-8 15.9 µM | DU-145 40.6 µM | NCI-H226 2.16 µM | CAKI-1 > 100 µM | K562 38.8 µM | SN12C 26.4 µM | EKVX 23.6 µM | A549 40.5 µM

O=C(c1ccccc1F)c1c(NCc2ccccc2)c(=O)c1=O
inactive: OVCAR-3 > 100 µM | Hs-578T > 100 µM | SNB-19 > 100 µM | HCT-116 > 100 µM | A498 > 100 µM | RPMI-8226 > 100 µM | SNB-75 > 100 µM | HOP-92 > 100 µM | NCI-H522 19.9 µM | OVCAR-8 > 100 µM | DU-145 > 100 µM | NCI-H226 > 100 µM | CAKI-1 > 100 µM | K562 > 100 µM | SN12C > 100 µM | EKVX > 100 µM | PC-3 > 100 µM | A549 > 100 µM

CC(C)(C)OC(=O)NC(Cc1ccccc1)NC(=O)NC(=O)OCc1ccccc1 (stereo not given)
inactive: OVCAR-3 42.2 µM | Hs-578T 44 µM | SNB-19 36.5 µM | HCT-116 19.2 µM | RPMI-8226 > 100 µM | SNB-75 32.8 µM | NCI-H522 15.6 µM | OVCAR-8 55.5 µM | DU-145 87.1 µM | NCI-H226 28.3 µM | CAKI-1 24 µM | K562 74.5 µM | SN12C > 100 µM | EKVX > 100 µM | PC-3 18.7 µM | A549 70.8 µM

CNC(=O)CCNC(=O)CCC(=O)OC
inactive: OVCAR-3 > 100 µM | SNB-19 > 100 µM | HCT-116 > 100 µM | A498 > 100 µM | OVCAR-8 > 100 µM | DU-145 > 100 µM | T47D > 100 µM | CAKI-1 > 100 µM | K562 > 100 µM | SN12C > 100 µM | PC-3 > 100 µM | A549 > 100 µM

COC(=O)[C@H]1ON2O[C@@H](O[C@H]3CCCC[C@@H]3C(C)(C)c3ccccc3)C[C@@H]3CC[C@H]1[C@@]32C
inactive: OVCAR-3 > 100 µM | Hs-578T > 100 µM | HCT-116 > 100 µM | A498 > 100 µM | RPMI-8226 > 100 µM | SNB-75 > 100 µM | HOP-92 > 100 µM | NCI-H522 > 100 µM | OVCAR-8 > 100 µM | DU-145 > 100 µM | T47D > 100 µM | NCI-H226 > 100 µM | CAKI-1 > 100 µM | K562 > 100 µM | SN12C > 100 µM | EKVX > 100 µM | A549 > 100 µM

O=C(O)Cn1nnc2c(=O)[nH][nH]c(=O)c21
inactive: OVCAR-3 > 100 µM | SNB-19 > 100 µM | HCT-116 > 100 µM | RPMI-8226 > 100 µM | HOP-92 > 100 µM | OVCAR-8 > 100 µM | DU-145 > 100 µM | CAKI-1 > 100 µM | K562 > 10 µM | SN12C > 100 µM | EKVX > 100 µM | A549 > 100 µM

CN(C)CCNC(=O)c1cccc2c1nc(-c1ccc(F)cc1)c1ccccc12
active: A549 0.935 µM
inactive: OVCAR-3 5.58 µM | SNB-19 6.93 µM | HCT-116 2.46 µM | A498 2.2 µM | SNB-75 10.7 µM | HOP-92 2.45 µM | OVCAR-8 4.33 µM | NCI-H226 2.06 µM | CAKI-1 3.27 µM | K562 2.44 µM | SN12C 2.77 µM | EKVX 9.38 µM

CO[C@@H]1C[C@H]2N3CC[C@@]2(c2cc4c(cc2C3)OCO4)[C@H]2O[C@@H]12
inactive: OVCAR-3 > 100 µM | Hs-578T > 100 µM | SNB-19 > 100 µM | HCT-116 > 100 µM | A498 > 100 µM | RPMI-8226 > 100 µM | SNB-75 > 100 µM | HOP-92 > 100 µM | NCI-H522 > 100 µM | OVCAR-8 > 100 µM | DU-145 > 100 µM | NCI-H226 1.34 µM | CAKI-1 > 100 µM | K562 > 100 µM | SN12C > 100 µM | EKVX > 100 µM | PC-3 > 100 µM | A549 > 100 µM
